For assay [1], the system named is Plasmodium falciparum. The experiment in a line: Antimalarial activity against chloroquine-resistant Plasmodium falciparum W2 assessed as plasmodial LDH activity. Format: functional, organism-based.
The test system of assay [2] is Plasmodium falciparum. As to the kind of experiment: Antimalarial activity against chloroquine-sensitive Plasmodium falciparum D6 assessed as plasmodial LDH activity. Format: functional, organism-based.

Regarding `CN1CCN(c2nc(Cl)cc(NCCCNc3ccnc4cc(Cl)ccc34)n2)CC1`, the IC50 in assay [1] and in assay [2] was 50 nM in each case.
Consider `Cc1cc(NCCCNc2ccnc3cc(Cl)ccc23)nc(NCCO)n1`, for which the IC50 in assay [1] and in assay [2] was 50 nM each time.
Regarding `COc1cc(Nc2nc(C)cc(N3CCN(c4ccnc5cc(Cl)ccc45)CC3)n2)cc(OC)c1`, the IC50 in assay [1] and in assay [2] was 130 nM in each case.
With `Clc1ccc2c(NCCNc3cc(Cl)nc(Cl)n3)ccnc2c1`, the IC50 in assay [1] and in assay [2] was 50 nM each time.
For `Cc1cc(NCCNc2ccnc3cc(Cl)ccc23)nc(NCCCCO)n1`, the IC50 in assay [1] and in assay [2] was 50 nM throughout.
Take `OCCCCCCNc1nccc(NCCCCNc2ccnc3cc(Cl)ccc23)n1`: the IC50 in assay [1] and in assay [2] was 50 nM each time.
With `COc1ccc(Nc2nc(C)cc(N3CCN(c4ccnc5cc(Cl)ccc45)CC3)n2)cc1`, the IC50 in assay [1] and in assay [2] was 130 nM throughout.
Consider `OCCCCNc1nccc(NCCNc2ccnc3cc(Cl)ccc23)n1`, for which the IC50 in assay [1] and in assay [2] was 50 nM throughout.
As for `Clc1ccc2c(NCCCNc3ccnc(N4CCOCC4)n3)ccnc2c1`, the IC50 in assay [1] and in assay [2] was 50 nM in each case.
For the compound `OCCCNc1nccc(NCCCCNc2ccnc3cc(Cl)ccc23)n1`, the IC50 in assay [1] and in assay [2] was 50 nM throughout.
In the case of `Clc1ccc2c(N3CCN(c4ccnc(Nc5ccc(Br)cc5)n4)CC3)ccnc2c1`, the half-maximal inhibitory concentration (IC50) in assay [1] and in assay [2] was 130 nM each time.
As to `Cc1cc(NCCNc2ccnc3cc(Cl)ccc23)nc(NCCCCCO)n1`, the IC50 in assay [1] and in assay [2] was 50 nM throughout.
Regarding `Clc1ccc(Nc2nccc(N3CCN(c4ccnc5cc(Cl)ccc45)CC3)n2)cc1`, the IC50 in assay [1] and in assay [2] was 130 nM throughout.
For `Cc1cc(N2CCN(c3ccnc4cc(Cl)ccc34)CC2)nc(N2CCCC2)n1`, the IC50 in assay [1] and in assay [2] was 130 nM throughout.
For the compound `Cc1cc(NCCCCNc2ccnc3cc(Cl)ccc23)nc(NCCO)n1`, the IC50 in assay [1] and in assay [2] was 50 nM each time.
For `Clc1ccc2c(NCCNc3ccnc(Cl)n3)ccnc2c1`, the IC50 in assay [1] and in assay [2] was 50 nM each time.
`Cc1cc(NCCCNc2ccnc3cc(Cl)ccc23)nc(NCCCCO)n1`: the IC50 in assay [1] and in assay [2] was 50 nM each time.
On to `Cc1cc(NCCCCNc2ccnc3cc(Cl)ccc23)nc(NCCCCCCO)n1`, for which the IC50 in assay [1] and in assay [2] was 50 nM each time.
`CCN1CCN(c2nc(Cl)cc(NCCNc3ccnc4cc(Cl)ccc34)n2)CC1`: the IC50 in assay [1] and in assay [2] was 50 nM each time.
In the case of `Cc1ccc(Nc2nc(C)cc(N3CCN(c4ccnc5cc(Cl)ccc45)CC3)n2)cc1`, the IC50 in assay [1] and in assay [2] was 130 nM each time.
For the compound `Cc1cc(N2CCN(c3ccnc4cc(Cl)ccc34)CC2)nc(NCCCO)n1`, the IC50 in assay [1] and in assay [2] was 130 nM in each case.
With `OCCCCCCNc1nccc(NCCNc2ccnc3cc(Cl)ccc23)n1`, the IC50 in assay [1] and in assay [2] was 50 nM throughout.
`OCCNc1nccc(NCCCCNc2ccnc3cc(Cl)ccc23)n1`: the IC50 in assay [1] and in assay [2] was 50 nM each time.
`Cc1cc(N2CCN(c3ccnc4cc(Cl)ccc34)CC2)nc(N2CCNCC2)n1`: the half-maximal inhibitory concentration (IC50) in assay [1] and in assay [2] was 130 nM in each case.
Take `Cc1cc(NCCCCNc2ccnc3cc(Cl)ccc23)nc(NCCCCO)n1`: the IC50 in assay [1] and in assay [2] was 50 nM throughout.
Turning to `Cc1cc(NCCCNc2ccnc3cc(Cl)ccc23)nc(NCCCCCO)n1`, the IC50 in assay [1] and in assay [2] was 50 nM each time.
Consider `Clc1ccc2c(NCCCNc3cc(Cl)nc(Cl)n3)ccnc2c1`, for which the IC50 in assay [1] and in assay [2] was 50 nM throughout.
As for `Clc1ccc2c(NCCNc3cc(Cl)nc(N4CCCCC4)n3)ccnc2c1`, the IC50 in assay [1] and in assay [2] was 50 nM in each case.
Take `OCCCNc1nccc(NCCNc2ccnc3cc(Cl)ccc23)n1`: the IC50 in assay [1] and in assay [2] was 50 nM each time.
With `COc1ccc(Nc2nccc(N3CCN(c4ccnc5cc(Cl)ccc45)CC3)n2)cc1`, the half-inhibitory concentration (IC50) in assay [1] and in assay [2] was 130 nM each time.
As for `Cc1cc(N2CCN(c3ccnc4cc(Cl)ccc34)CC2)nc(Cl)n1`, the IC50 in assay [1] and in assay [2] was 130 nM throughout.
As for `Cc1cc(N2CCN(c3ccnc4cc(Cl)ccc34)CC2)nc(Nc2ccc(Cl)cc2)n1`, the IC50 in assay [1] and in assay [2] was 130 nM throughout.
For the compound `Cc1cc(N2CCN(c3ccnc4cc(Cl)ccc34)CC2)nc(NC2CCCCC2)n1`, the IC50 in assay [1] and in assay [2] was 130 nM each time.
Turning to `COc1cc(Nc2nccc(N3CCN(c4ccnc5cc(Cl)ccc45)CC3)n2)cc(OC)c1`, the IC50 in assay [1] and in assay [2] was 130 nM throughout.
Turning to `Cc1cc(N2CCN(c3ccnc4cc(Cl)ccc34)CC2)nc(NCCO)n1`, the IC50 in assay [1] and in assay [2] was 130 nM each time.
Regarding `OCCCCCNc1nccc(NCCCCNc2ccnc3cc(Cl)ccc23)n1`, the IC50 in assay [1] and in assay [2] was 50 nM throughout.
Consider `Clc1ccc2c(NCCCNc3ccnc(N4CCCCC4)n3)ccnc2c1`, for which the IC50 in assay [1] and in assay [2] was 50 nM each time.
Regarding `CN1CCN(c2nccc(NCCCNc3ccnc4cc(Cl)ccc34)n2)CC1`, the half-maximal inhibitory concentration (IC50) in assay [1] and in assay [2] was 50 nM in each case.
Consider `Cc1cc(N2CCN(c3ccnc4cc(Cl)ccc34)CC2)nc(N2CCOCC2)n1`, for which the IC50 in assay [1] and in assay [2] was 130 nM throughout.
With `Clc1ccc2c(NCCCNc3cc(Cl)nc(N4CCCCC4)n3)ccnc2c1`, the IC50 in assay [1] and in assay [2] was 50 nM each time.
As to `Cc1cc(NCCNc2ccnc3cc(Cl)ccc23)nc(NCCCO)n1`, the IC50 in assay [1] and in assay [2] was 50 nM throughout.
`Cc1cc(NCCCCNc2ccnc3cc(Cl)ccc23)nc(NCCCO)n1`: the IC50 in assay [1] and in assay [2] was 50 nM in each case.
Turning to `CCN1CCN(c2nc(Cl)cc(NCCCNc3ccnc4cc(Cl)ccc34)n2)CC1`, the IC50 in assay [1] and in assay [2] was 50 nM throughout.
On to `Cc1cc(N2CCN(c3ccnc4cc(Cl)ccc34)CC2)nc(Nc2ccc(F)cc2)n1`, for which the IC50 in assay [1] and in assay [2] was 130 nM each time.
Regarding `Cc1cc(NCCCCNc2ccnc3cc(Cl)ccc23)nc(NCCCCCO)n1`, the IC50 in assay [1] and in assay [2] was 50 nM each time.
`Cc1ccc(Nc2nccc(N3CCN(c4ccnc5cc(Cl)ccc45)CC3)n2)cc1`: the IC50 in assay [1] and in assay [2] was 130 nM throughout.
With `OCCCNc1nccc(NCCCNc2ccnc3cc(Cl)ccc23)n1`, the IC50 in assay [1] and in assay [2] was 50 nM in each case.
As to `Clc1ccc2c(NCCNc3ccnc(N4CCCCC4)n3)ccnc2c1`, the IC50 in assay [1] and in assay [2] was 50 nM in each case.
For `OCCCCCNc1nccc(NCCCNc2ccnc3cc(Cl)ccc23)n1`, the IC50 in assay [1] and in assay [2] was 50 nM each time.
On to `Clc1ccc2c(NCCCNc3cc(Cl)nc(N4CCOCC4)n3)ccnc2c1`, for which the half-inhibitory concentration (IC50) in assay [1] and in assay [2] was 50 nM each time.
Regarding `Cc1cc(NCCNc2ccnc3cc(Cl)ccc23)nc(NCCCCCCO)n1`, the IC50 in assay [1] and in assay [2] was 50 nM throughout.
As for `Cc1cc(NCCNc2ccnc3cc(Cl)ccc23)nc(NCCO)n1`, the IC50 in assay [1] and in assay [2] was 50 nM throughout.
Consider `CCN1CCN(c2nccc(NCCCNc3ccnc4cc(Cl)ccc34)n2)CC1`, for which the IC50 in assay [1] and in assay [2] was 50 nM each time.
Regarding `Clc1ccc2c(N3CCN(c4ccnc(Nc5ccccc5)n4)CC3)ccnc2c1`, the IC50 in assay [1] and in assay [2] was 130 nM throughout.
Regarding `OCCCCNc1nccc(NCCCCNc2ccnc3cc(Cl)ccc23)n1`, the IC50 in assay [1] and in assay [2] was 50 nM in each case.
As to `CN1CCN(c2nccc(NCCNc3ccnc4cc(Cl)ccc34)n2)CC1`, the IC50 in assay [1] and in assay [2] was 50 nM in each case.
With `Cc1cc(N2CCN(c3ccnc4cc(Cl)ccc34)CC2)nc(Nc2ccc(Br)cc2)n1`, the IC50 in assay [1] and in assay [2] was 130 nM throughout.
Regarding `CN1CCN(c2nc(Cl)cc(NCCNc3ccnc4cc(Cl)ccc34)n2)CC1`, the IC50 in assay [1] and in assay [2] was 50 nM in each case.
Regarding `OCCNc1nccc(NCCNc2ccnc3cc(Cl)ccc23)n1`, the IC50 in assay [1] and in assay [2] was 50 nM throughout.
For the compound `OCCCCNc1nccc(NCCCNc2ccnc3cc(Cl)ccc23)n1`, the IC50 in assay [1] and in assay [2] was 50 nM throughout.
`Fc1ccc(Nc2nccc(N3CCN(c4ccnc5cc(Cl)ccc45)CC3)n2)cc1`: the IC50 in assay [1] and in assay [2] was 130 nM throughout.
On to `OCCNc1nccc(N2CCN(c3ccnc4cc(Cl)ccc34)CC2)n1`, for which the IC50 in assay [1] and in assay [2] was 130 nM throughout.
For the compound `OCCNc1nccc(NCCCNc2ccnc3cc(Cl)ccc23)n1`, the IC50 in assay [1] and in assay [2] was 50 nM in each case.
Turning to `Clc1ccc2c(NCCCNc3ccnc(Cl)n3)ccnc2c1`, the IC50 in assay [1] and in assay [2] was 50 nM each time.
For the compound `OCCCNc1nccc(N2CCN(c3ccnc4cc(Cl)ccc34)CC2)n1`, the IC50 in assay [1] and in assay [2] was 130 nM each time.
Take `Cc1cc(NCCCNc2ccnc3cc(Cl)ccc23)nc(NCCCO)n1`: the IC50 in assay [1] and in assay [2] was 50 nM throughout.
With `OCCCCCNc1nccc(NCCNc2ccnc3cc(Cl)ccc23)n1`, the IC50 in assay [1] and in assay [2] was 50 nM in each case.
Regarding `CCN1CCN(c2nccc(NCCNc3ccnc4cc(Cl)ccc34)n2)CC1`, the IC50 in assay [1] and in assay [2] was 50 nM in each case.
Turning to `Cc1cc(N2CCN(c3ccnc4cc(Cl)ccc34)CC2)nc(Nc2ccccc2)n1`, the IC50 in assay [1] and in assay [2] was 130 nM throughout.
Regarding `OCCCCCCNc1nccc(NCCCNc2ccnc3cc(Cl)ccc23)n1`, the IC50 in assay [1] and in assay [2] was 50 nM in each case.
As for `Cc1cc(NCCCNc2ccnc3cc(Cl)ccc23)nc(NCCCCCCO)n1`, the IC50 in assay [1] and in assay [2] was 50 nM in each case.
As to `Clc1ccc2c(NCCNc3cc(Cl)nc(N4CCOCC4)n3)ccnc2c1`, the IC50 in assay [1] and in assay [2] was 50 nM throughout.

Values taken from ChEMBL document CHEMBL3817764, “Pyrimidine-based antimalarials: design strategies and antiplasmodial effects” (Medchemcomm, 2016).
